Data published in the supplement of paper PMC5662764.
± gives the standard deviation of the averaged measurements.

Columns and labels:
Experiment in all cases: normalised growth rate inhibition (GR value) relative to DMSO control (GR (1 = untreated growth, 0 = cytostasis, <0 = cytotoxic)); higher = less growth inhibition
Conditions in all cases: 72 h
[1] = test system: SKBR3
Protocol: (§1)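 Breast cancer cell lines (BT-20, Hs 578T, MCF 10A, MCF7, MDA-MB-231, SK-BR-3) were plated in 384-well plates and treated 24 h later with drugs at six concentrations (0.04-10 µM). Viable cells were counted by Hoechst/dead-cell-stain imaging at 0 and 72 h. Counts were normalised to DMSO controls on the same plate to give the relative cell count and the growth-rate inhibition (GR) value; technical plate triplicates were averaged for each biological replicate.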

[2] = test system: MDAMB231
Protocol: as §1

[3] = test system: MCF10A
Protocol: as §1

[4] = test system: BT20
Protocol: as §1

[5] = test system: HS578T
Protocol: as §1

[6] = test system: MCF7
Protocol: as §1

| Structure (SMILES) | normalised growth rate inhibition ([1]; 0.04 µM) | normalised growth rate inhibition ([1]; 0.12 µM) | normalised growth rate inhibition ([1]; 0.37 µM) | normalised growth rate inhibition ([1]; 1.11 µM) | normalised growth rate inhibition ([1]; 3.33 µM) | normalised growth rate inhibition ([1]; 10 µM) | normalised growth rate inhibition ([2]; 0.04 µM) | normalised growth rate inhibition ([2]; 0.12 µM) | normalised growth rate inhibition ([2]; 0.37 µM) | normalised growth rate inhibition ([2]; 1.11 µM) | normalised growth rate inhibition ([2]; 3.33 µM) | normalised growth rate inhibition ([2]; 10 µM) | normalised growth rate inhibition ([3]; 0.04 µM) | normalised growth rate inhibition ([3]; 0.12 µM) | normalised growth rate inhibition ([3]; 0.37 µM) | normalised growth rate inhibition ([3]; 1.11 µM) | normalised growth rate inhibition ([3]; 3.33 µM) | normalised growth rate inhibition ([3]; 10 µM) | normalised growth rate inhibition ([4]; 0.04 µM) | normalised growth rate inhibition ([4]; 0.12 µM) | normalised growth rate inhibition ([4]; 0.37 µM) | normalised growth rate inhibition ([4]; 1.11 µM) | normalised growth rate inhibition ([4]; 3.33 µM) | normalised growth rate inhibition ([4]; 10 µM) | normalised growth rate inhibition ([5]; 0.04 µM) | normalised growth rate inhibition ([5]; 0.12 µM) | normalised growth rate inhibition ([5]; 0.37 µM) | normalised growth rate inhibition ([5]; 1.11 µM) | normalised growth rate inhibition ([5]; 3.33 µM) | normalised growth rate inhibition ([5]; 10 µM) | normalised growth rate inhibition ([6]; 0.04 µM) | normalised growth rate inhibition ([6]; 0.12 µM) | normalised growth rate inhibition ([6]; 0.37 µM) | normalised growth rate inhibition ([6]; 1.11 µM) | normalised growth rate inhibition ([6]; 3.33 µM) | normalised growth rate inhibition ([6]; 10 µM) |
| --- | --- | --- | --- | --- | --- | --- | --- | --- | --- | --- | --- | --- | --- | --- | --- | --- | --- | --- | --- | --- | --- | --- | --- | --- | --- | --- | --- | --- | --- | --- | --- | --- | --- | --- | --- | --- |
| O=c1[nH]c2ccccc2n1C1CCN(Cc2ccc(-c3[nH]c4cc5ncnc5cc4nc3-c3ccccc3)cc2)CC1 [AKT-inhibitor-1-2] | 0.675 ± 0.14 | 0.759 ± 0.051 | 0.766 ± 0.021 | 0.587 ± 0.091 | 0.599 ± 0.027 | 0.299 ± 0.043 | 0.874 ± 0.091 | 0.889 ± 0.086 | 0.918 ± 0.046 | 0.835 ± 0.083 | 0.888 ± 0.023 | 0.56 ± 0.11 | 0.994 ± 0.01 | 0.979 ± 0.01 | 0.9721 ± 0.0092 | 0.922 ± 0.048 | 0.945 ± 0.047 | 0.605 ± 0.15 | 0.831 ± 0.027 | 0.851 ± 0.026 | 0.921 ± 0.023 | 0.849 ± 0.015 | 0.872 ± 0.026 | 0.291 ± 0.052 | 0.9753 ± 0.0043 | 0.9556 ± 0.0094 | 0.933 ± 0.0086 | 0.857 ± 0.029 | 0.875 ± 0.024 | 0.388 ± 0.099 | 0.749 ± 0.023 | 0.741 ± 0.034 | 0.701 ± 0.1 | 0.471 ± 0.066 | 0.436 ± 0.11 | -0.0151 ± 0.17 |
| Cc1ccc(NC(=O)c2ccc(CN3CCN(C)CC3)cc2)cc1Nc1nccc(-c2cccnc2)n1 [imatinib] | 1.05 ± 0.04 | 1.07 ± 0.045 | 1.04 ± 0.061 | 1.08 ± 0.046 | 1.11 ± 0.066 | 0.991 ± 0.043 | 1.01 ± 0.055 | 0.999 ± 0.032 | 1.02 ± 0.04 | 1 ± 0.045 | 1.02 ± 0.028 | 0.915 ± 0.022 | 1.002 ± 0.0079 | 1.001 ± 0.0023 | 0.9962 ± 0.003 | 1 ± 0.014 | 1.01 ± 0.018 | 0.998 ± 0.031 | 1 ± 0.033 | 1.02 ± 0.075 | 0.99 ± 0.03 | 1.02 ± 0.037 | 0.991 ± 0.042 | 0.981 ± 0.057 | 0.997 ± 0.018 | 0.996 ± 0.011 | 1.01 ± 0.034 | 1.03 ± 0.041 | 1.05 ± 0.059 | 1.05 ± 0.11 | 1.06 ± 0.084 | 1.08 ± 0.088 | 1.08 ± 0.076 | 1.06 ± 0.057 | 1.04 ± 0.075 | 0.9 ± 0.039 |
